Assay results reported in patent US20250161317A1, “MOLIDUSTAT FORMULATIONS AND METHODS OF USE FOR TREATMENT OF ANEMIA IN CATS” (ELANCO US INC., priority 2022, published 2025).
Where two headings read alike, the source gives them in different places.

Tests used:
[1] = system: cats; assay: Clinical tolerance after two oral treatments (Example 2); format: in vivo; settings: two oral treatments at 3.0 mg/kg in cats
Method: (§1) The animals were treated in a fasted prandial state with the test item at a single oral dose rate of 3.0 mg/kg. After a wash out period of 14 days the animals were treated with the test item at the same dose rate and same administration route, but in a fed prandial state. Frequent blood samplings at fixed intervals were performed over a period of 48 hours after each treatment.
(§2) Peak and extent of plasma exposure of molidustat was higher if administered orally as sodium salt to cats at fasted prandial state compared to fed prandial state. Metabolized molidustat amounted to approximately 60% in total exposure independent of prandial state.

[2] = Plasma pharmacokinetics, oral bioavailability and dose proportionality after single oral dose; format: in vivo, cat; settings: both sexes, geometric mean (CV)
Method: (§3) The test item was applied as single oral dose at the expected target dose rate of 5 mg molidustat sodium per kg bw, at 2.5 mg/kg and at 10 mg/kg to healthy adult cats. A single intravenous bolus dose of 5.0 mg/kg was applied for comparison using a suitable reference item (molidustat sodium aqueous solution 2.0% (m/v)).
(§4) Following a mixed serial/cross-over design, 16 healthy, adult cats (8 neutered males, 8 spayed females) were included in the study and allocated to […]. The animals were between 13.7 and 14.7 months old and weighed between 3.3 and 6.0 kg at start of the in-life phase.
(§5) The dose rates administered were at means of 2.42 mg/kg, 4.79, and 9.54 mg molidustat sodium per kg for the 0.5×, 1×, 2× dose groups, respectively. The reference item was dosed at an actual mean dose rate of 5.15 mg/kg. Dose rate calculations were based on the body weights determined prior to each study period.
(§6) Fifteen blood samples were drawn per animal after oral dosing (16 samples/animal after intravenous dosing) following a pre-determined schedule deemed suitable to describe the pharmacokinetic profile of the active substance contained in the test and reference item after single oral or intravenous dosing to cats.
(§7) Concentrations of the active substance molidustat and its major […] were analyzed by High Performance Liquid Chromatography/Tandem Mass Spectrometry in accordance with method 01469 (Krebber et al., Analytical method for the determination of BAY 85-3934 and its metabolite BAY 116-3348 in plasma by LC-MS/MS, BAG-CS report MR-15/109). The lower limit of quantitation was 5 μg/L for each substance.
(§8) Pharmacokinetic evaluation of plasma concentration data was based on the observed data using non-compartmental methods and comprised all PK-parameters to adequately describe the absorption, distribution and elimination phase of the active substance and its metabolite after oral or intravenous dosing with the test or reference item. For pharmacokinetic evaluation actual individual dose rates were used to account for the small differences between target and actual dose rates. All animals finished the in-life phase according to schedule.

[3] = Plasma pharmacokinetics after repeated once daily oral dosing of 2.5% (m/v) oily suspension; format: in vivo, cat; settings: for AUC / Cmax / Tmax / half-life: both sexes, plasma, po, 4.8 mg/kg, 4.8 mg molidustat sodium per kg once daily oral, geometric mean (CV)
Method: Following a single group design, eight healthy, young adult cats (4 neutered males, 4 spayed females) were included in the study. The animals were between 14 and 15.5 months old and weighed between 3.35 and 4.95 kg at start of the in-life phase.
The dose rate administered was 4.8 mg molidustat sodium per kg. Dosing was once daily on 6 consecutive days keeping an interval of 24 h. Dose rate calculation was based on the body weights determined on SD-1 for all administrations.
Thirty-one blood samples were drawn per animal following a pre-determined schedule deemed suitable to describe the pharmacokinetic profile of the active substance contained in the test item after repeated dosing to cats.
Concentrations of the active substance molidustat and its major metabolite in plasma were analyzed by High Performance Liquid Chromatography/Tandem Mass Spectrometry. The lower limit of quantitation was 5 μg/L for each substance.
Pharmacokinetic evaluation of plasma concentration data was based on the observed data using non-compartmental methods and comprised all PK-parameters to adequately describe the absorption, distribution and elimination phase of the active substance and its metabolite after repeated dosing with the test item.

[4] = Plasma pharmacokinetics after single intravenous bolus dose; format: in vivo, cat; settings: for Vd: read-out: volume of distribution
Method: as §3, §4, §5, §6, §7, §8

[5] = system: cats with anemia associated with CKD; assay: Placebo-controlled field study, efficacy (HCT/PCV) in cats with anemia associated with CKD; format: in vivo, cat
Text: The objective of this study was to evaluate the safety and efficacy of molidustat to manage anemia associated with chronic kidney disease (CKD) in cats.
A total of 65 cats were screened at 11 US and 9 EU sites. Twenty-three (23) cats (13 cases from 9 sites in the US and 10 cases from 9 sites in the EU), with nearly equally distributed genders, mostly domestic shorthair breed, ranging in age from 4 to 17 years, and having initial body weights between 2 and 6 kilograms, were randomized and administered one of the two treatments. A total of 21 cats were included in the 28-day efficacy phase.

[6] = Plasma pharmacokinetic study after single oral administration to fasted and fed cats; format: in vivo, cat; settings: for AUC / AUC(0-t) / Cmax / Tmax: female, European Shorthaired, plasma, po, 3 mg/kg; for AUC / AUC(0-t) / Cmax / Tmax / Clb / MRTint / Vz / t1//2: 3.0 mg molidustat sodium per kg; for AUC / AUC(0-t) / Cmax / Clb / MRTint / Vz / t1//2: geometric mean; for Tmax: median
Method: (§9) Four adult, healthy, female European Shorthaired cats were selected for the study. On the day prior to treatment feed was withdrawn to ensure a fasted prandial state for the oral treatment.
The pharmacokinetic profile of the HIF-PHI was determined in plasma of 3 adult, female, healthy European Shorthaired cats with a mean body weight of 3.5 kg (StD=0.41 kg). One animal was removed from the study due to difficult handling of the animal.
as §1
The plasma samples were analyzed with regard to their concentrations of molidustat and its metabolite by HPLC using a tandem mass spectrometric detector (AB Sciex API 4000).
From the individual plasma concentration-time-profiles obtained pharmacokinetics (PK) were derived using non-compartmental analyses.

[7] = system: Erythropoietin (EPO); assay: Erythropoietin concentrations after single oral administration (Example 2); format: in vivo, cat; settings: 6 hours after treatment, oral 3.0 mg/kg to fed or fasted cats
Method: as §9, §1, §2

[8] = system: cats with anemia associated with CKD; assay: Field study, in-use safety in cats with anemia associated with CKD
Method: This study was conducted using a single protocol in the United States (US, n=23 clinics) and Europe (EU, n=11 clinics) over a 10 month period. On study day (SD) −7 (±2 days), blood was collected for serum chemistry and hematology from cats that qualified for enrollment. After meeting enrollment criteria, cats were orally treated once daily for at least 28 consecutive days (SD 0 to SD 27) with either the control product (CP [vehicle]) or molidustat. The molidustat was administered orally at a dose of 5 mg/kg body weight (bw) (0.2 mL/kg bw). Blood was collected to assess hematological parameters on SDs 0, 7, 14, 21 and 28 (±2 days for all time points except SD 0). Blood was also collected for evaluating serum chemistry on SD 28 (±2 days), except creatinine. Hematocrit (HCT) and packed cell volumes (PCV, performed at each clinic) were the primary hematological parameters of interest. Individual animal treatment success was evaluated up to and including SD 28±2 using three different criteria, as well as using only the data on SD 28.

[9] = system: healthy, adult cats; assay: Tolerability and safety in healthy adult cats, daily oral dosing (Example 3); format: in vivo, cat; settings: once daily oral
Text: (§10) Twenty-two adult cats were randomized to three treatment groups and one control group with 5 and 6 cats/group respectively (3 (2) male/3 female). After a baseline phase of two weeks the cats were orally treated in fasted condition once daily. […] The oily suspensions were in accordance with the oily suspension described in Example 1.
Treatments had no impact on the cats' body weight. None of the findings observed during the physical examinations or general health observations were rated as having a negative impact on the outcome of the study. The most frequently observed findings were vomiting of small amounts of fluid.

[10] = system: Erythropoietin (EPO); assay: EPO plasma concentrations in healthy adult cats, daily oral dosing; format: in vivo, cat; settings: 6 hours post treatment, all study days measured
Text: (§11) This study evaluated the effects of molidustat on red blood cell parameters in healthy, adult cats, if administered daily via the oral route at different dosages and using different formulations of molidustat sodium. The hematocrit, erythropoietin (EPO) and molidustat plasma concentrations during the treatment phase were examined, with hematocrit representing the main outcome parameter.
as §10
(§12) For evaluation of the hematological parameters blood samples were taken at regular intervals before, during and after the treatment phase. Additionally, plasma samples were collected at study day (SD) 0, SD 7 and SD 23 before and after treatment and analyzed for their concentration of EPO and molidustat.

[11] = system: healthy, adult cats; assay: Pharmacodynamic effects on hematocrit in healthy adult cats, daily oral dosing; format: in vivo, cat
Text: as §11, §10
To keep the application volume per kg bodyweight (BW) consistent for each animal the oily suspension of molidustat was available at two different concentrations (5% and 10%), so that each cat was treated with 0.1 mL/kg BW of the respective formulation.
as §12

[12] = both sexes, plasma, 5 mg/kg, single intravenous bolus 5 mg molidustat sodium per kg
[13] = female, plasma, iv, 5 mg/kg, females
[14] = male, plasma, iv, 5 mg/kg, males
[15] = SD 21, baseline-controlled analysis
[16] = SD 28, baseline-controlled analysis

SMILES: O=c1c(-n2ccnn2)c[nH]n1-c1cc(N2CCOCC2)ncn1 [molidustat, 2-[6-(morpholin-4-yl)pyrimidin-4-yl]-4-(1H-1,2,3-triazol-1-yl)-2,3-dihydro-1H-pyrazol-3-one]
- clinical tolerance [1]: clinically well tolerated without any clinical signs of intolerance
- AUC ([2]; 2.5 mg/kg single oral dose): 5600 ng·h/mL
- Cmax ([2]; 2.5 mg/kg single oral dose): 2700 ng/mL
- Tmax ([2]; 2.5 mg/kg single oral dose): 0.5 h
- half-life ([2]; 2.5 mg/kg single oral dose): 5 h
- AUC ([2]; 5.0 mg/kg single oral dose): 12700 ng·h/mL
- Cmax ([2]; 5.0 mg/kg single oral dose): 3830 ng/mL
- Tmax ([2]; 5.0 mg/kg single oral dose): 1 h
- half-life ([2]; 5.0 mg/kg single oral dose): 4.6 h
- AUC ([2]; 10 mg/kg single oral dose): 23500 ng·h/mL
- Cmax ([2]; 10 mg/kg single oral dose): 6730 ng/mL
- Tmax ([2]; 10 mg/kg single oral dose): 1 h
- half-life ([2]; 10 mg/kg single oral dose): 7.1 h
- AUC ([3]; first dose): 13300 ng·h/mL
- Cmax ([3]; first dose): 4460 ng/mL
- Tmax ([3]; first dose): 0.64 h
- half-life ([3]; first dose): 4.2 h
- AUC ([3]; last (6th) dose): 13300 ng·h/mL
- Cmax ([3]; last (6th) dose): 4100 ng/mL
- Tmax ([3]; last (6th) dose): 0.94 h
- half-life ([3]; last (6th) dose): 6.5 h
- accumulation index ([3]; repeated once daily oral dosing, 6 days): 1.1
- clearance [4, 12]: 5.17 mL/min/kg
- half-life ([4]; both sexes, plasma, 5 mg/kg, single intravenous bolus 5 mg molidustat sodium per kg, read-out: elimination half-life (converted)): 5.91 h
- Vd [4, 12]: 2.69 L/kg
- clearance [4, 13]: 5.5 mL/min/kg
- Vd [4, 13]: 2.96 L/kg
- clearance [4, 14]: 5 mL/min/kg
- Vd [4, 14]: 2.36 L/kg
- mean plasma exposure ([4]; single intravenous bolus 5 mg molidustat sodium per kg (aqueous solution 2.0%)): 16350 ng·h/mL
- HCT and PCV levels throughout the continuation phase ([5]; 8 cats, 5 mg/kg or intermittent 2.5 mg/kg): maintained or increased
- PCV increase relative to baseline ([5]; SD 14, p=0.0167): 2.21%
- HCT increase relative to baseline ([5]; SD 14, p=0.0643): 1.87%
- HCT difference from average baseline [5, 15]: 3.91%
- PCV difference from average baseline [5, 15]: 3.46%
- HCT and PCV results compared to the CP group ([5]; SD 21, p-values<0.01): significantly greater
- PCV/HCT in comparison to SD 0 ([5]; SD 21 and SD 28, once daily for 28 days at 5 mg/kg, anemic cats): significantly increased
- HCT difference from average baseline [5, 16]: 3.68%
- PCV difference from average baseline [5, 16]: 3.89%
- HCT and PCV increases compared to the CP group ([5]; SD 28, p<0.061): approached statistical significance
- AUC ([6]; oral to fasted cats): 8420 ng·h/mL
- AUC(0-t) ([6]; oral to fasted cats): 8410 ng·h/mL
- Cmax ([6]; oral to fasted cats): 3130 ng/mL
- Tmax ([6]; oral to fasted cats): 0.67 h
- AUC ([6]; oral to fed cats): 6300 ng·h/mL
- AUC(0-t) ([6]; oral to fed cats): 6280 ng·h/mL
- Cmax ([6]; oral to fed cats): 930 ng/mL
- Tmax ([6]; oral to fed cats): 1 h
- peak and extent of plasma exposure, fasted compared to fed prandial state ([6]; oral as sodium salt, 3.0 mg/kg): higher
- Clb ([6]; oral to fasted cats): 6 mL/min/kg
- MRTint ([6]; oral to fasted cats): 3.7 h
- Vz ([6]; oral to fasted cats): 3.74 L/kg
- t1//2 ([6]; oral to fasted cats): 7.28 h
- Clb ([6]; oral to fed cats): 8 mL/min/kg
- MRTint ([6]; oral to fed cats): 7.0 h
- Vz ([6]; oral to fed cats): 4.59 L/kg
- t1//2 ([6]; oral to fed cats): 6.69 h
- Erythropoietin (EPO) concentrations [7]: highly increased
- treatment related adverse events ([8]; alone or with concomitant medications for CKD): No treatment related adverse events
- tolerability of treatment ([8]; once daily for 28 days at 5 mg/kg): well tolerated

SMILES: [Na+].[O-]c1c(-n2ccnn2)cnn1-c1cc(N2CCOCC2)ncn1 [molidustat sodium, sodium 1-[6-(morpholin-4-yl)pyrimidin-4-yl]-4-(1H-1,2,3-triazol-1-yl)-1H-pyrazol-5-olate]
- tolerability and safety ([9]; all study groups): very well tolerated and safe
- impact on body weight [9]: no impact
- EPO concentrations compared to the placebo group [10]: significantly differed
- mean hematocrit compared to placebo ([11]; 5 mg/kg once daily oral, at SD 14): significantly higher
- mean hematocrit compared to placebo ([11]; 10 mg/kg once daily oral, already at SD 7): significantly higher
- study day from which mean hematocrit was comparable to placebo group ([11]; after cessation of treatment): SD 70
- study day on which mean hematocrit returned to levels within reference range ([11]; after cessation of treatment): SD 56
- hematocrit relative to reference range ([11]; all treated animals, for up to 42 days after treatment): increase in hematocrit above the reference range
